Assay results taken from patent publication US20260345582A1, “PRODRUG FOR ANTI-AGING RELATED DISEASES AND USE METHOD THEREOF” (Beijing SunCell Bio-Medical Co., Ltd., priority 2022, published 2026).

Key:
[1] = liver microsomal metabolic stability, human; conditions: Fu and RB assumed to be 1
Method: (§1) Hepatic Microsomal Metabolic Stability
(§2) A13bGa1 was co-incubated with the mouse, rat, canine, monkey and human […] and the incubation medium at a final drug concentration of 1 μM in the incubation system for 60 minutes. Samples were taken and analyzed at time points 0, 15, 30, 45 and 60 minutes during the incubation. The reaction was terminated by adding an amount of acetonitrile solution containing the internal standard. […] The residual percentage, half-life, intrinsic clearance, amplified clearance, hepatic clearance and hepatic extraction ratio were determined. The entire experiment was performed in triplicate. All data calculations were performed by Microsoft Excel software. Peak areas were detected by extracting the ionic spectrum. The in vitro half-life (t1/2) of the parent compound was detected by fitting the natural logarithm of the percentage elimination of the parent compound linearly to time.
(§3) The in vitro intrinsic clearance (in μL/min/mg protein) was calculated using the following equation: in vitro CLint=kV/N
(§4) The amplified clearance (in mL/min/kg) was calculated using the following equation: Amplified CLint=kV/N×the amplification factor
(§5) The hepatic clearance (in mL/min/kg) was calculated using the following equation: The predicted hepatic CLH=(Q×Fu/RB×the amplified CLint)/(Q+Fu/RB×the amplified CLint) • V=the incubation volume per well (0.2 mL); • N=the total amount of protein (mg) • Q=the hepatic blood flow (mL/min/kg) • Fu=the plasma free rate (assumed to be 1) • RB=the whole blood partition coefficient (assumed to be 1)
(§6) The hepatic uptake rate was calculated using the following equation:
(§7) The hepatic extraction ratio (ER)=(the predicted hepatic CLH)/Q

[2] = liver microsomal metabolic stability, monkey; conditions: Fu and RB assumed to be 1
Method: as §1, §2, §3, §4, §5, §6, §7

[3] = liver microsomal metabolic stability, canine; conditions: canine; Fu and RB assumed to be 1
Method: as §1, §2, §3, §4, §5, §6, §7

[4] = liver microsomal metabolic stability, rat; conditions: Fu and RB assumed to be 1
Method: as §1, §2, §3, §4, §5, §6, §7

[5] = liver microsomal metabolic stability, mouse; conditions: Fu and RB assumed to be 1
Method: as §1, §2, §3, §4, §5, §6, §7

[6] = test system: A549 cells (human non-small cell lung cancer cell), induced senescent with Cisplatin; assay: in vitro killing of induced senescent A549 cells (CCK-8); type: cell-based; conditions: induced senescent A549 cell model, FIG. 1A
From the text: A. The killing results of some selected compounds in the in vitro compound library screening on the induced senescent A549 cell model. Wherein, MZ-1, dBET6, ARV-825, I-BET726, I-BET151, and INCB057643 are all BET inhibitors; A1331852 and A1155463 are novel Bcl-xL inhibitors; Dasatinib, Quercetin, Fisetin, Curcumin are the familiar active drugs or natural products.
B. Comparison of the killing effects of three Bcl-xL inhibitors on the induced senescent A549 cell model. A549 represents the normal uninduced A549 cell group; and A549-CDDP represents the senescent A549 cell group induced with Cisplatin (CDDP) in vitro.
(§8) Induction of the Cellular Senescence

[7] = test system: senescent A549 cells; assay: cell killing activity assay, senescent A549 cells (Example 7); type: cell-based, human; conditions: for selective killing of the senescent cells: A549-induced senescence model, three days, CCK-8, FIG. 7
Method: as §8
(§9) Cell Killing Activity Assay
(§10) Preparation of the cell plates: The non-senescent, and the induced senescent HEF cells and A549 cells were taken respectively, digested with trypsin, and centrifuged at 1000 rmp for 5 minutes. The supernatants were removed, and the cells were resuspended in fresh DMEM medium containing 10% foetal bovine serum for counting. The cell density was adjusted so that the density of the non-senescent cells was at 4000 cells/100 μL and the density of the senescent cells was at 7000 cells/100 μL. The cell suspension was added to the 96-well transparent cell culture plates at 100 μL per well. Note that the edge wells of the 96-well plate were not used for the test wells, and 300 μL PBS is added separately to reduce the medium evaporation. The cell-spread 96-well plates were put back into the incubator at 37 °C for the overnight incubation until the cells adhered to the wall.
Formulation of the drug concentration gradients: After the cells adhered to the wall on the second day, the small molecule compounds (d-12, d-11, and d-4) to be tested for activity are ready to be added. […] 3 parallel replicate wells were set up for each test drug concentration. The 96-well plate was put back into the incubator at 37 °C, and the cell survival was tested after three days.
Detection of the cell survival after the drug treatment using the CCK-8 method: Three days after the addition of the drug, the well plate was removed, the supernatant was discarded, and 100 μL of the pre-prepared CCK-8 working solution was added to each well. The CCK-8 working solution was obtained by diluting the CCK8 stock solution (C0041, Beyotime) with the serum-free DMEM medium in 10-fold volume. The 96-well plate added with the CCK-8 working solution was put back to the incubator at 37 °C and incubated for 0.5-2 hours. The plate was taken out to determine the absorbance value (OD value) of each well at the wavelength of 450 nm. The cell viability in each experimental group was calculated. […]

[8] = test system: senescent HEF cells; assay: cell killing activity assay, senescent HEF cells (Example 7); type: cell-based, human; conditions: HEF-induced senescence model, three days, CCK-8, FIG. 7
Method: as §8, §9
as §10, with “Note that the edge wells of the 96-well plate were not used for the test wells, and 300 μL PBS is added separately to reduce the medium evaporation. The cell-spread 96-well plates were put back into the incubator at 37 °C for the overnight incubation until the cells adhered to the wall.” left out
(§11) Formulation of the drug concentration gradients: After the cells adhered to the wall on the second day, the small molecule compounds (d-12, d-11, and d-4) to be tested for activity are ready to be added. […]
(§12) Detection of the cell survival after the drug treatment using the CCK-8 method: Three days after the addition of the drug, the well plate was removed, the supernatant was discarded, and 100 μL of the pre-prepared CCK-8 working solution was added to each well. […] The plate was taken out to determine the absorbance value (OD value) of each well at the wavelength of 450 nm. The cell viability in each experimental group was calculated. […]

[9] = test system: non-senescent A549 cells; assay: cell killing activity assay, non-senescent A549 cells (Example 7); type: cell-based, human; conditions: non-senescent A549, highest concentration (25 μM)
Method: as §8, §9
as §10, with “Note that the edge wells of the 96-well plate were not used for the test wells, and 300 μL PBS is added separately to reduce the medium evaporation. The cell-spread 96-well plates were put back into the incubator at 37 °C for the overnight incubation until the cells adhered to the wall.” left out
as §11, §12

[10] = test system: non-senescent HEF cells; assay: cell killing activity assay, non-senescent HEF cells (Example 7); type: cell-based, human; conditions: highest concentration (25 μM)
Method: as §8, §9
as §10, with “Note that the edge wells of the 96-well plate were not used for the test wells, and 300 μL PBS is added separately to reduce the medium evaporation. The cell-spread 96-well plates were put back into the incubator at 37 °C for the overnight incubation until the cells adhered to the wall.” left out
as §11, §12

[11] = test system: senescent cells (A549 and HEF); assay: cell killing activity assay, senescent A549 and HEF cell models (Example 7); type: cell-based, human; conditions: FIG. 7
Method: as §8, §9
as §10, with “Note that the edge wells of the 96-well plate were not used for the test wells, and 300 μL PBS is added separately to reduce the medium evaporation. The cell-spread 96-well plates were put back into the incubator at 37 °C for the overnight incubation until the cells adhered to the wall.” left out
as §11, §12

Compound: O=c1ccc2ccc(O)cc2o1 [7-hydroxycoumarin, reference compound]
- The predicted intrinsic hepatic clearance Clint [1]: 20.16 mL/min/kg
- The predicted intrinsic hepatic clearance Clint [2]: 42.08 mL/min/kg
- The predicted intrinsic hepatic clearance Clint [3]: 30.44 mL/min/kg
- The predicted intrinsic hepatic clearance Clint [4]: 52.33 mL/min/kg
- The predicted intrinsic hepatic clearance Clint [5]: 87.82 mL/min/kg

Compound: Cc1sc2c(c1C)C(c1ccc(Cl)cc1)=N[C@@H](CC(=O)Nc1ccc(OCCOCCOCCOCCNc3cccc4c3C(=O)N(C3CCC(=O)NC3=O)C4=O)cc1)c1nnc(C)n1-2 (stereo partly shown) [ARV825]
- senescent cell killing activity and selectivity, compound screening [6]: better in vitro killing activity

Compound: CN(C)CC#Cc1ccc(OCCCc2sc(N3CCc4cccc(C(=O)Nc5nc6ccccc6s5)c4C3)nc2C(=O)O)c(F)c1 [Compound A1155463]
- senescent cell killing activity and selectivity, compound screening [6]: good senescent cell killing activity and selectivity in vitro

Compound: Cc1ncsc1-c1ccc(CNC(=O)[C@@H]2C[C@@H](O)CN2C(=O)[C@@H](NC(=O)COCCOCCOCCNC(=O)C[C@@H]2N=C(c3ccc(Cl)cc3)c3c(sc(C)c3C)-n3c(C)nnc32)C(C)(C)C)cc1 [MZ1]
- senescent cell killing activity and selectivity, compound screening [6]: better in vitro killing activity

Compound: CC(=O)OC[C@H]1O[C@@H](Oc2ccc(C(Cc3cn(CCCN4CCOCC4)nn3)OC(=O)c3nc(N4CCc5cccc(C(=O)Nc6nc7ccccc7s6)c5C4)ccc3-c3cnn(CC45CC6CC(CC(C6)C4)C5)c3C)cc2[N+](=O)[O-])[C@H](OC(C)=O)[C@@H](OC(C)=O)[C@H]1OC(C)=O (stereo partly drawn) [d-11]
- selective killing of the senescent cells [7]: selective killing of the senescent cells
- selective killing of the senescent cells [8]: selective killing of the senescent cells
- killing of the non-senescent cells [9]: none of the three molecules killed the non-senescent cells
- killing of the non-senescent cells [10]: none of the three molecules killed the non-senescent cells

Compound: Cc1c(-c2ccc(N3CCc4cccc(C(=O)Nc5nc6ccccc6s5)c4C3)nc2C(=O)OC(Cc2cn(CCCN3CCOCC3)nn2)c2ccc(O[C@@H]3O[C@H](CO)[C@H](O)[C@H](O)[C@H]3O)c([N+](=O)[O-])c2)cnn1CC12CC3CC(CC(C3)C1)C2 (stereo partly drawn) [d-12]
- selective killing of the senescent cells [7]: selective killing of the senescent cells
- IC50 ([7]; Homo sapiens, 72 h, Cisplatin-induced senescent A549, three days, CCK-8): ~6.9 µM
- selective killing of the senescent cells [8]: selective killing of the senescent cells
- killing of the non-senescent cells [9]: none of the three molecules killed the non-senescent cells
- killing of the non-senescent cells [10]: none of the three molecules killed the non-senescent cells
- relative activity in killing the senescent cells among the three molecules [11]: relatively more active in killing the senescent cells

Compound: Cc1sc2c(c1C)C(c1ccc(Cl)cc1)=N[C@@H](CC(=O)NCCCCCCCCNC(=O)COc1cccc3c1C(=O)N(C1CCC(=O)NC1=O)C3=O)c1nnc(C)n1-2 (stereo partly shown) [dBET6]
- senescent cell killing activity and selectivity, compound screening [6]: better in vitro killing activity
